# Measurements published in patent US20230183193A1, “4-DIFLUOROMETHYL BENZOYL AMIDES WITH HERBICIDAL ACTION” (BAYER CROPSCIENCE AKTIENGESELLSCHAFT, priority 2017, published 2023).
# What was measured:
# Type in all cases: in vivo
# Viola tricolor [1] = test: Post-emergence herbicidal action, VIOTR; settings: 80 g/ha, Table D
# Experimental: (§1) Seeds of monocotyledonous and dicotyledonous weed and crop plants are laid out in sandy loam soil in wood-fiber pots, covered with soil and cultivated in a greenhouse under good growth conditions. 2 to 3 weeks after sowing, the test plants are treated at the one-leaf stage. The compounds of the invention, formulated in the form of wettable powders (WP) or as emulsion concentrates (EC), are then sprayed onto the green parts of the plants in the form of an aqueous suspension or emulsion at a water application rate equating to […], with addition of 0.2% wetting agent. After the test plants have been left to stand in the greenhouse under optimal growth conditions for about 3 weeks, the action of the preparations is assessed visually in comparison to untreated controls (herbicidal action in percent (%): 100% activity=the plants have died, 0% activity=like control plants). […] At the same time, inventive compounds leave Gramineae crops such as barley, wheat, rye, millet/sorghum, corn or rice virtually undamaged when applied post-emergence, even at high active compound dosages. In addition, some substances are also harmless to dicotyledonous crops such as soya, cotton, oilseed rape, sugar beet or potatoes. Some of the compounds according to the invention have high selectivity and are therefore suitable for controlling unwanted vegetation in agricultural crops by the post-emergence method. The data of Tables C and D below illustrate, in an exemplary manner, the […] herbicidal action of the compounds according to the invention, the herbicidal activity being stated in percent.
# (§2) For comparison, the herbicidal activity of numerous compounds according to the invention was tested with the structurally closest compounds known from the documents WO 2011/035874, WO 2012/028579 and WO 2012/126932, by the pre- and post-emergence method.
# Viola tricolor [2] = test: Pre-emergence herbicidal action, VIOTR; settings: dosage 320 g/ha, scored visually after 3 weeks vs untreated controls
# From the text: (§3) 1. Pre-Emergence Herbicidal Action Against Harmful Plants Seeds of monocotyledonous and dicotyledonous weed plants and crop plants are laid out in sandy loam soil in wood-fiber pots and covered with soil. The compounds of the invention, formulated in the form of wettable powders (WP) or as emulsion concentrates (EC), are then applied to the surface of the covering soil in the form of an aqueous suspension or emulsion at a water application rate equating to […], with addition of 0.2% wetting agent. After the treatment, the pots are placed in a greenhouse and kept under good growth conditions for the trial plants. The damage to the test plants is scored visually after a test period of 3 weeks by comparison with untreated controls (herbicidal activity in percent (%): 100% activity=the plants have died, 0% activity=like control plants).
# as §2
# Stellaria media [3] = test: Pre-emergence herbicidal action, STEME; settings: dosage 320 g/ha, scored visually after 3 weeks vs untreated controls
# From the text: as §3, §2
# Amaranthus retroflexus [4] = test: Pre-emergence herbicidal action, AMARE; settings: dosage 320 g/ha, scored visually after 3 weeks vs untreated controls
# From the text: as §3, §2
# Abutilon theophrasti [5] = test: Post-emergence herbicidal action, ABUTH; settings: 80 g/ha, Table D
# Experimental: as §1, §2
# Pharbitis purpureum = test: Post-emergence herbicidal action, PHBPU; settings: 80 g/ha, Table D
# Experimental: as §1, §2
# Abutilon theophrasti [6] = test: Pre-emergence herbicidal action, ABUTH; settings: dosage 320 g/ha, scored visually after 3 weeks vs untreated controls
# From the text: as §3, §2
# Cyperus serotinus = test: Pre-emergence herbicidal action, CYPES; settings: dosage 320 g/ha, scored visually after 3 weeks vs untreated controls
# From the text: as §3, §2
# Stellaria media [7] = test: Post-emergence herbicidal action, STEME; settings: 80 g/ha, Table D
# Experimental: as §1, §2
# Matricaria inodora = test: Pre-emergence herbicidal action, MATIN; settings: dosage 320 g/ha, scored visually after 3 weeks vs untreated controls
# From the text: as §3, §2
# Setaria viridis = test: Pre-emergence herbicidal action, SETVI; settings: dosage 320 g/ha, scored visually after 3 weeks vs untreated controls
# From the text: as §3, §2
# Amaranthus retroflexus [8] = test: Post-emergence herbicidal action, AMARE; settings: 80 g/ha, Table D
# Experimental: as §1, §2
Structure (SMILES),herbicidal activity VIOTR (Viola tricolor [1]),herbicidal activity VIOTR (Viola tricolor [2]),Herbicidal activity STEME (Stellaria media [3]),herbicidal activity AMARE (Amaranthus retroflexus [4]),herbicidal activity ABUTH (Abutilon theophrasti [5]),Herbicidal activity PHBPU (Pharbitis purpureum),herbicidal activity ABUTH (Abutilon theophrasti [6]),herbicidal activity CYPES (Cyperus serotinus),Herbicidal activity STEME (Stellaria media [7]),herbicidal activity MATIN (Matricaria inodora),herbicidal activity SETVI (Setaria viridis),herbicidal activity AMARE (Amaranthus retroflexus [8])
CCS(=O)(=O)c1c(C(F)F)ccc(C(=O)Nc2ncnn2C)c1C1CC1 [Example 4-30],80%,90%,90%,90%,80%,90%,100%,80%,90%,100%,–,–
Cn1ncnc1NC(=O)c1ccc(C(F)F)c(S(C)(=O)=O)c1F [Example 4-39],90%,100%,100%,100%,90%,90%,100%,–,100%,90%,100%,90%
Cn1nnnc1NC(=O)c1ccc(C(F)F)c(S(C)(=O)=O)c1I [Example 1-75],–,90%,100%,90%,–,80%,90%,–,100%,90%,100%,90%
Cn1ncnc1NC(=O)c1ccc(C(F)F)c(S(C)(=O)=O)c1I [Example 4-75],80%,90%,100%,100%,–,80%,100%,80%,90%,100%,90%,100%
CCSc1c(C(F)F)ccc(C(=O)Nc2ncnn2C)c1C1CC1 [Example 4-28],80%,100%,90%,90%,–,90%,100%,–,100%,90%,–,80%
CC[S+]([O-])c1c(C(F)F)ccc(C(=O)Nc2ncnn2C)c1C1CC1 (stereo not drawn) [Example 4-29],90%,100%,90%,90%,80%,90%,100%,–,90%,90%,–,80%
CSc1c(C(F)F)ccc(C(=O)Nc2ncnn2C)c1C1CC1 [Example 4-25],90%,100%,90%,90%,–,80%,90%,–,100%,90%,–,90%
